# Measured values as given in patent publication US20120135089A1, “E3 LIGASE INHIBITORS” (priority 2009, published 2012).
# Entries after “also recorded” stand apart in the source; their conditions may differ.
# Assays:
# Mdm2 = assay: Western blot of Mdm2 in MEFs; assay type: cell-based, mouse; details: 5 μg/ml (14 μM), 6 hours
# Procedure: MEFs were treated with 5 μg/ml (14 μM) of MEL23 for 6 hours. Cells were lysed and analyzed by Western blotting using anti-Mdm2 and anti-eIF4E antibodies. NT indicates a no treatment control.
# Cells were seeded and treated with the indicated compound(s). Cells were lysed after each time point in a buffer of 50 mM TrisHCl pH 7.5, 200 mM NaCl, 0.5% NP-40, and 1 complete mini EDTA-free protease inhibitor cocktail tablet per 10 mL of buffer (Roche, Cat. No. 8360170). Protein content was quantified using a Biorad protein assay reagent (Bio-Rad Laboratories, Hercules, Calif., Cat. No. 500-0006). SDS sample buffer was added to the samples, and the mixture was boiled for 5 minutes. Equal amounts of protein were resolved on a 1D SDS-PAGE gel. Following separation proteins were transferred to nitrocellulose membrane, blocked with 5% milk, and then incubated with primary antibody overnight at 4° C. The membrane was incubated with secondary-HRP antibody for 45 minutes at room temperature and developed with SuperSignal West Pico Substrate (Pierce, Rockford, Ill., Cat. No. 34080).
# RKO and RKO-E6 cells = assay: Alamar Blue viability assay, RKO and RKO-E6 cells; assay type: cell-based, human; details: 48 hours, dilution series
# Procedure: (§1) RKO and RKO-E6 cells were seeded in 384-well plates and treated with a dilution series of MEL23 for 48 hours as indicated. Alamar Blue was added for 16 hours and fluorescence determined on a Victor3 Plate Reader. The median percent inhibition of five replicates was determined and normalized to a no treatment control. One standard deviation is shown. […] Cells were seeded in 384-well plates and treated with a dilution series of MEL23 for 48 hours at the indicated concentrations. Alamar Blue was added for 16 hours and fluorescence determined on a Victor3 Plate Reader. The median percent inhibition of five replicates was determined and normalized to a no treatment control. One standard deviation is shown.
# (§2) Cells were seeded in 384-well black clear-bottom plates (Corning Inc., Corning, N.Y., Cat. No. 07-200-655). Cells were then treated with the indicated concentration of compound. Plates were incubated for 48 hours at 37° C. Alamar Blue (Invitrogen, Cat. No. DAL1100) was added to each well to a final concentration of 10% and incubated at 37° C. for 16 hours. Fluorescence intensity was determined using the Victor3 Plate Reader (PerkinElmer). Median percent survival or growth inhibition was calculated and normalized to a no treatment control.
# [1] = molecular target: T1, Flag-Mdm2-HA-MdmX complex (Homo sapiens, UniProt O15151+Q00987); assay: in vitro ubiquitination assay, Flag-Mdm2/HA-MdmX complex; assay type: biochemical
# T1 construct: unlike the full-length complex, which was produced through co-expression of Mdm2 and MdmX in SF9 cells; made in house; host or cells: Sf9 insect cells, co-infection; purified on M2-agarose, then HA-agarose
# Procedure: These assays were performed with 100 ng of full-length Flag-Mdm2 or 200 ng of Flag-Mdm2/HA-MdmX complexes (100 ng of each protein as each are present in a 1:1 ratio, when purified), ^32P-labeled ubiquitin, UbCH5c, and E1. Following a 30-minute incubation at 37° C., reactions were terminated and resolved on a SDS-PAGE gel followed by autoradiography. PC indicates positive control, and NC indicates negative control with UbCH5C eliminated from the reaction. The gels were quantified by phosphoimaging using ImageQuant software (GE Healthcare Bio-Sciences Corp., Piscataway, N.J.). […]
# Ubiquitin reactions contain 50 ng E1, 1 μg PK-ubiquitin, 50 ng His-UbCH5C, and 100 ng Flag-Mdm2. […] The products were resolved by SDS-PAGE and analyzed by Western blotting with anti-p53, anti-Mdm2 SMP14, 2A10, 3G5 mix, or anti-MdmX. […] The graph represents the quantification of the Mdm2-ubiquitin species, normalized to the positive control. […]
# Full-length Mdm2 in vitro ubiquitination reactions were performed in 15 μl reaction mixtures containing 50 mM TrisHC1 pH 7.5, 5 mM MgCl2, 2 mM NaF, 2 mM ATP, 0.6 mM DTT, 50 ng E1 (Boston Biochem, Cat. No. E-305), 1 μg PK-ubiquitin, 50 ng His-UbCH5C, and 100 ng Flag-Mdm2. […] The products were resolved by SDS-PAGE and analyzed by Western blot with anti-p53, anti-Mdm2 SMP14, 2A10, 3G5 mix, or anti-MdmX antibodies. […]
# [2] = tested on: wild-type, p53−/− and p53−/−; mdm2−/− MEFs; assay: Alamar Blue viability assay, mouse embryonic fibroblasts; assay type: cell-based; details: 48 hours
# Procedure: as §1, §2
# [3] = molecular target: T2, Mdm2 RING-MdmX RING hetero-complex (Homo sapiens, UniProt O15151+Q00987); assay: in vitro ubiquitination assay, Mdm2 RING-MdmX RING; assay type: biochemical
# T2 construct: 500 ng GST-Mdm2 (residues 400-491); GST-MdmX (residues 410-490); made in house
# Procedure: These assays were performed with 100 ng of full-length Flag-Mdm2 or 200 ng of Flag-Mdm2/HA-MdmX complexes (100 ng of each protein as each are present in a 1:1 ratio, when purified), ^32P-labeled ubiquitin, UbCH5c, and E1. Following a 30-minute incubation at 37° C., reactions were terminated and resolved on a SDS-PAGE gel followed by autoradiography. PC indicates positive control, and NC indicates negative control with UbCH5C eliminated from the reaction. The gels were quantified by phosphoimaging using ImageQuant software (GE Healthcare Bio-Sciences Corp., Piscataway, N.J.). […] Reactions were performed as in FIG. 11A except 500 ng GST-Mdm2 (residues 400-491) and GST-MdmX (residues 400-490) were used for ubiquitin polymerization. […] Reactions were performed as in FIG. 11A except with 3 μg of the Roc1/Cul1 ligase complex. Ubiquitination activity of the complex was tested in the presence of increasing concentrations of MEL23 and MEL24.
# Radiolabeled in vitro ubiquitination assays were carried out in 30 μl reaction mixtures with ^32P-labeled ubiquitin. 500 ng GST-Mdm2 (residues 400-491) and GST-MdmX (residues 410-490) were used for the RING-RING reactions. The products of the reaction were resolved on a SDS-PAGE gel and visualized by autoradiography.
# T1 sequence (Q00987 whole entry): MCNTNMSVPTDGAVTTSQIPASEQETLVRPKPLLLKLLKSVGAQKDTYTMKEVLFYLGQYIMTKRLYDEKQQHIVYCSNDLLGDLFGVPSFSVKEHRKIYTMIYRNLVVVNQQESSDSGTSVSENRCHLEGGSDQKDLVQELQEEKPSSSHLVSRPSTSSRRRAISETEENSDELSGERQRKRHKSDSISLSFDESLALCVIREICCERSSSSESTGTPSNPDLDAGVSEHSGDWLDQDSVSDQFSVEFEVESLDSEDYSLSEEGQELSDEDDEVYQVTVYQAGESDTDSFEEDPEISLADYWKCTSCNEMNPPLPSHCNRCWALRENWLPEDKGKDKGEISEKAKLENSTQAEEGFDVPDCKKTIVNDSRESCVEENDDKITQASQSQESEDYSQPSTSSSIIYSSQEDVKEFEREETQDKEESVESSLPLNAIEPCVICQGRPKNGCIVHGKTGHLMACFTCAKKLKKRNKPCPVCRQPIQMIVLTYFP
# T1 sequence (O15151 whole entry): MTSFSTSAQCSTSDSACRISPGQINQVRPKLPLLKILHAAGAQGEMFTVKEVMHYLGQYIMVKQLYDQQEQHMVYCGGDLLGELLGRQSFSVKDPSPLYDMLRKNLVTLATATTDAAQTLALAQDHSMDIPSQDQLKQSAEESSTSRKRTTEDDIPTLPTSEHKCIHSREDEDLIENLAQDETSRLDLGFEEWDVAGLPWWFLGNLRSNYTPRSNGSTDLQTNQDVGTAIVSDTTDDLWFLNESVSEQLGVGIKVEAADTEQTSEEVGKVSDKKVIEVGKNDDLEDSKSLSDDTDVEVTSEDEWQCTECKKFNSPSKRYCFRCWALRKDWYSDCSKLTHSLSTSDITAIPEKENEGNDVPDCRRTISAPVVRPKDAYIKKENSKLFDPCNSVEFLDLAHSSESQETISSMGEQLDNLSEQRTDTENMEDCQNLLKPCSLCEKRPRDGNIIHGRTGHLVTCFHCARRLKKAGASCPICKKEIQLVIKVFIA
# T2 sequence (Q00987 400-491): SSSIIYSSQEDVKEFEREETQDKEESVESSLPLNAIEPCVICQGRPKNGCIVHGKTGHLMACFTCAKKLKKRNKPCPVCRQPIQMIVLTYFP
# T2 sequence (O15151 410-490): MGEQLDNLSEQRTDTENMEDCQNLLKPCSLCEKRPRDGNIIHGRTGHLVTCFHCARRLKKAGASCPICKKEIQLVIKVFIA
compound,measurement,setting,value
CCCCn1c(=O)[nH]c(O)c(C2NCCc3c2[nH]c2ccccc32)c1=O (stereo not drawn) [MEL23],Mdm2 level in MEFs,Mdm2,increased Mdm2 in MEFs
same,RKO cell survival,RKO and RKO-E6 cells,decreased in a dose-dependent manner
same,RKO-E6 cell survival,RKO and RKO-E6 cells,remained largely unaffected
same,ligase activity of the Mdm2-MdmX complex in vitro,[1],significantly decreased the overall ligase activity; also recorded: inhibited
same,activity of the Mdm2-MdmX complex toward p53 in vitro,[1]; Western blot,inhibited the activity of the Mdm2-MdmX complex toward p53
same,survival of p53−/− MEFs,[2]; dilution series,also decreased
same,survival of wild-type MEFs,[2]; dilution series,survival of the wild-type cells decreased the greatest
same,survival of p53−/− mdm2−/− MEFs,[2]; highest concentration tested,Only a small decrease in cell survival
same,ubiquitination of the Mdm2 RING-MdmX RING hetero-complex,[3],inhibited
